Experiments:
[1] = molecular target: T1, EP3 membrane (EP3 receptor) (Homo sapiens, UniProt P43115); experiment: [3H]-PGE2 binding; EP3 competition binding (SPA)
T1 construct: purchased Millipore HTS092M
T1 sequence (P43115 1-390): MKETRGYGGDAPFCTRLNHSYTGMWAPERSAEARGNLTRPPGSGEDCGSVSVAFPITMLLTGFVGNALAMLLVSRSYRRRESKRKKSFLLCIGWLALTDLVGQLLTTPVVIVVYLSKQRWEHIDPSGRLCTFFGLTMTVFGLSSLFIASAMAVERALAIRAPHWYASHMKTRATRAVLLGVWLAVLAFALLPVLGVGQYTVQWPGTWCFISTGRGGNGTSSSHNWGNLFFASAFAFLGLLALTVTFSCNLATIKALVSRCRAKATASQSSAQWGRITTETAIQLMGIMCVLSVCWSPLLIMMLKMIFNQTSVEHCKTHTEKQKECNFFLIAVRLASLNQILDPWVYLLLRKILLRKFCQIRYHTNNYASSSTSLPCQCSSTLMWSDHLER
In short: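 Ki derived from one-site nonlinear regression of scintillation proximity counts after 2 h room-temperature equilibration. Serially diluted (1:3) compounds competed against [3H]-PGE2 (2 nM) for EP3 receptor membranes (2 μg/well) in pH 7.4 Tris buffer with 10 mM MgCl2, 1 mM EDTA, 0.1% DMSO.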

[2] = molecular target: T2, CHO cells over-expressing the EP3 receptor (Homo sapiens, UniProt P43115); experiment: CHO cell cAMP assay; EP3 cAMP antagonist dose response (sulprostone reference), HTRF; type: cell-based; conditions: sulprostone 700 nM (EC80) and FSK 2 μM (EC70); read-out: CHO_cAMP IC50
T2 construct: expressed in transfected cells; host or cells: CHO cells
T2 sequence (P43115 1-390): T1 sequence (P43115 1-390)
In short: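 EP3-overexpressing CHO cells pre-incubated with test compound, then stimulated 30 min at 37 °C with FSK (2 μM, EC70) plus sulprostone (700 nM, EC80); antagonism seen as restored cAMP. cAMP measured by HTRF 665/615 ratio, converted via on-plate standard curve. IC50 from Hill fit of 11-point dosing.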

O=C(NC/C(F)=C1/CCCc2cnn(-c3ccc4ccccc4c3)c21)NS(=O)(=O)c1ccc2c(c1)OCCO2 [Compound #110, (E)-N-((2-fluoro-2-(1-(naphthalen-2-yl)-1,4,5,6-tetrahydro-7H-indazol-7-ylidene)ethyl)carbamoyl)-2,3-dihydrobenzo[b][1,4]dioxine-6-sulfonamide]
Ki [1]: > 10 µM
IC50 [2]: > 20 µM

O=C(CC/C=C1\CCCc2cnn(Cc3ccc(Cl)cc3Cl)c21)NS(=O)(=O)c1ccc(Cl)s1 [Compound #29, (E)-N-((5-chlorothiophen-2-yl)sulfonyl)-4-(1-(2,4-dichlorobenzyl)-1,4,5,6-tetrahydro-7H-indazol-7-ylidene)butanamide]
Ki [1]: 0.001 µM
IC50 [2]: 0.002 µM

COc1ccc(Cl)cc1S(=O)(=O)NC(=O)NC/C(F)=C1\CCCc2cnn(Cc3ccc(C(F)(F)F)cc3)c21 [Compound #131, (Z)-5-chloro-N-((2-fluoro-2-(1-(4-(trifluoromethyl)benzyl)-1,4,5,6-tetrahydro-7H-indazol-7-ylidene)ethyl)carbamoyl)-2-methoxybenzenesulfonamide]
Ki [1]: 0.094 µM
IC50 [2]: 0.349 µM

O=C(NC/C=C1\CCCc2cnn(C3CCN(c4ccccn4)CC3)c21)NS(=O)(=O)c1cc(Cl)c(Cl)s1 [Compound #140, (E)-4,5-dichloro-N-((2-(1-(1-(pyridin-2-yl)piperidin-4-yl)-1,4,5,6-tetrahydro-7H-indazol-7-ylidene)ethyl)carbamoyl)thiophene-2-sulfonamide]
Ki [1]: 0.008 µM
IC50 [2]: 0.012 µM

O=C(NC/C(F)=C1\CCc2cnn(Cc3ccc(Cl)cc3Cl)c21)NS(=O)(=O)c1cc(Cl)c(Cl)s1 [Compound #136, (Z)-4,5-dichloro-N-((2-(1-(2,4-dichlorobenzyl)-4,5-dihydro-cyclopenta[c]pyrazol-6(1H)-ylidene)-2-fluoroethyl)carbamoyl)thiophene-2-sulfonamide]
Ki [1]: 0.005 µM
IC50 [2]: 0.046 µM

O=C(NC/C(F)=C1/CCCc2onc(Cc3ccc(Cl)cc3Cl)c21)NS(=O)(=O)c1cc(Cl)c(Cl)s1 [Compound #128, (E)-4,5-dichloro-N-((2-(3-(2,4-dichlorobenzyl)-6,7-dihydrobenzo[d]isoxazol-4(5H)-ylidene)-2-fluoroethyl)carbamoyl)thiophene-2-sulfonamide]
Ki [1]: 0.532 µM
IC50 [2]: 8.4 µM

O=C(C/C(F)=C1\CCCc2cnn(Cc3ccc(Cl)cc3Cl)c21)NS(=O)(=O)c1cc(Cl)c(Cl)s1 [Compound #93, (Z)-3-(1-(2,4-dichlorobenzyl)-1,4,5,6-tetrahydro-7H-indazol-7-ylidene)-N-((4,5-dichlorothiophen-2-yl)sulfonyl)-3-fluoropropanamide]
Ki [1]: 0.006 µM
IC50 [2]: 0.017 µM

O=C(NS(=O)(=O)c1ccc(Cl)cc1)OC/C(F)=C1/COCc2cnn(-c3cccc(C(F)(F)F)c3)c21 [compound 108]
Ki [1]: > 10 µM
IC50 [2]: > 20 µM

O=C(NC/C(F)=C1\COCc2cnn(-c3ccc(C(F)(F)F)cc3)c21)NS(=O)(=O)c1cc(Cl)c(Cl)s1 [Compound #119, (E)-4,5-dichloro-N-((2-fluoro-2-(1-(4-(trifluoromethyl)phenyl)-1,4-dihydropyrano[4,3-c]pyrazol-7(6H)-ylidene)ethyl)carbamoyl)thiophene-2-sulfonamide]
Ki [1]: 0.043 µM
IC50 [2]: 0.23 µM

O=C(NS(=O)(=O)c1ccc(Cl)cc1)OC/C=C1\CCCc2c(C(F)F)nn(Cc3ccc(Cl)cc3Cl)c21 [Compound #32, (E)-2-(1-(2,4-dichlorobenzyl)-3-(difluoromethyl)-1,4,5,6-tetrahydro-7H-indazol-7-ylidene)ethyl ((4-chlorophenyl)sulfonyl)carbamate]
Ki [1]: 0.168 µM
IC50 [2]: 1.3 µM

COc1ccc(S(=O)(=O)NC(=O)NC/C=C2\COCc3cnn(Cc4ccc(Cl)cc4Cl)c32)cn1 [Compound #67, (Z)—N-((2-(1-(2,4-dichlorobenzyl)-1,4-dihydropyrano[4,3-c]pyrazol-7(6H)-ylidene)ethyl)carbamoyl)-6-methoxypyridine-3-sulfonamide]
Ki [1]: 0.026 µM
IC50 [2]: 0.074 µM

O=C(C/C=C1\CCCc2cnn(Cc3ccc(Cl)cc3Cl)c21)NS(=O)(=O)c1ccc(Cl)s1 [Compound #17]
Ki [1]: 0.019 µM
IC50 [2]: 0.074 µM

O=C(NS(=O)(=O)c1ccc(Cl)cc1)OC/C=C1\CCCc2cnn(Cc3ccc(Cl)cc3Cl)c21 [Compound #2, (E)-2-(1-(2,4-dichlorobenzyl)-1,4,5,6-tetrahydro-7H-indazol-7-ylidene)ethyl ((4-chlorophenyl)sulfonyl)carbamate]
Ki [1]: 0.011 µM
IC50 [2]: 0.092 µM

O=C(C/C=C1\CCCc2cnn(Cc3ccc(Cl)cc3Cl)c21)NS(=O)(=O)c1cnc2ccccc2c1 [Compound #22, (E)-3-(1-(2,4-dichlorobenzyl)-1,4,5,6-tetrahydro-7H-indazol-7-ylidene)-N-(quinolin-3-ylsulfonyl)propenamide]
Ki [1]: 0.373 µM
IC50 [2]: 2.9 µM

COc1ccc(Cl)c(S(=O)(=O)NC(=O)NC/C=C2\COCc3cnn(Cc4ccc(Cl)cc4Cl)c32)c1 [Compound #65, (Z)-2-chloro-N-((2-(1-(2,4-dichlorobenzyl)-1,4-dihydropyrano[4,3-c]pyrazol-7(6H)-ylidene)ethyl)carbamoyl)-5-methoxybenzenesulfonamide]
Ki [1]: 0.027 µM
IC50 [2]: 0.044 µM

O=C(NC/C=C1\CCCc2cnn(Cc3ccc(Cl)cc3Cl)c21)NS(=O)(=O)c1ccc2c(c1)OCCO2 [Compound #16, (E)-N-((2-(1-(2,4-dichlorobenzyl)-1,4,5,6-tetrahydro-7H-indazol-7-ylidene)ethyl)carbamoyl)-2,3-dihydrobenzo[b][1,4]dioxine-6-sulfonamide]
Ki [1]: 0.009 µM
IC50 [2]: 0.027 µM

CN(C/C=C1\CCCc2cnn(Cc3ccc(Cl)cc3Cl)c21)C(=O)NS(=O)(=O)c1ccc(Cl)cc1 [Compound #33, (E)-4-chloro-N-((2-(1-(2,4-dichlorobenzyl)-1,4,5,6-tetrahydro-7H-indazol-7-ylidene)ethyl)(methyl)carbamoyl)benzenesulfonamide]
Ki [1]: 0.006 µM
IC50 [2]: 0.009 µM

O=C(NC/C=C1\CCCc2cnn(C3CCN(c4ccc(F)cc4)CC3)c21)NS(=O)(=O)c1ccc(Cl)cc1 [Compound #122, (E)-4-chloro-N-((2-(1-(1-(4-fluorophenyl)piperidin-4-yl)-1,4,5,6-tetrahydro-7H-indazol-7-ylidene)ethyl)carbamoyl)benzenesulfonamide]
Ki [1]: 0.006 µM
IC50 [2]: 0.045 µM

O=C(NC/C=C1\CCCc2cnn(Cc3ccc(Cl)cc3Cl)c21)NS(=O)(=O)c1ccc(Cl)s1 [Compound #11, (E)-5-chloro-N-((2-(1-(2,4-dichlorobenzyl)-1,4,5,6-tetrahydro-7H-indazol-7-ylidene)ethyl)carbamoyl)thiophene-2-sulfonamide]
Ki [1]: 0.001 µM
IC50 [2]: 0.002 µM

CC(C)Cn1ncc2c1/C(=C/CNC(=O)NS(=O)(=O)c1ccc(Cl)cc1)CCC2 [Compound #80, (E)-4-chloro-N-((2-(1-isobutyl-1,4,5,6-tetrahydro-7H-indazol-7-ylidene)ethyl)carbamoyl)benzenesulfonamide]
Ki [1]: 0.92 µM
IC50 [2]: 4.4 µM

O=C(NC/C=C1\CCCc2cnn(Cc3ccc(Cl)cc3Cl)c21)NS(=O)(=O)c1cnc2ccccc2c1 [Compound #12, (E)-N-((2-(1-(2,4-dichlorobenzyl)-1,4,5,6-tetrahydro-7H-indazol-7-ylidene)ethyl)carbamoyl)quinoline-3-sulfonamide]
Ki [1]: 0.019 µM
IC50 [2]: 0.048 µM

COc1cccc(S(=O)(=O)NC(=O)NC/C=C2\COCc3cnn(Cc4ccc(Cl)cc4Cl)c32)c1 [Compound #63, (Z)—N-((2-(1-(2,4-dichlorobenzyl)-1,4-dihydropyrano[4,3-c]pyrazol-7(6H)-ylidene)ethyl)carbamoyl)-3-methoxybenzenesulfonamide]
Ki [1]: 0.044 µM
IC50 [2]: 0.121 µM

O=C(NC/C=C1\CCCc2cnn(Cc3ccc(Cl)cc3Cl)c21)NS(=O)(=O)c1nc2ccccc2s1 [Compound #15, (E)-N-((2-(1-(2,4-dichlorobenzyl)-1,4,5,6-tetrahydro-7H-indazol-7-ylidene)ethyl)carbamoyl)benzo[d]thiazole-2-sulfonamide]
Ki [1]: 0.001 µM
IC50 [2]: 0.005 µM

O=C(NC/C(F)=C1\CCCc2cnn(Cc3ccc(Cl)cc3Cl)c21)NS(=O)(=O)c1cc2ccccc2o1 [Compound #111, (Z)—N-((2-(1-(2,4-dichlorobenzyl)-1,4,5,6-tetrahydro-7H-indazol-7-ylidene)-2-fluoroethyl)carbamoyl)benzofuran-2-sulfonamide]
Ki [1]: 0.059 µM
IC50 [2]: 0.399 µM

O=C(NC/C(F)=C1\CCCn2nnc(Cc3ccccc3)c21)NS(=O)(=O)c1cc(Cl)c(Cl)s1 [Compound #129, (Z)—N-((2-(3-benzyl-6,7-dihydro-[1,2,3]triazolo[1,5-a]pyridin-4(5H)-ylidene)-2-fluoroethyl)carbamoyl)-4,5-dichlorothiophene-2-sulfonamide]
Ki [1]: 0.029 µM
IC50 [2]: 0.548 µM

From patent publication US20210253562A1, “ACYLSUFONAMIDE COMPOUNDS USEFUL AS EP3 RECEPTOR ANTAGONISTS” (Janssen Pharmaceutica NV, priority 2018, published 2021)
